Measured values published in article PMC8065691, “Polymerizable Matrix Metalloproteinases’ Inhibitors with Potential Application for Dental Restorations” (Biomedicines, 2021).

Tests used:
[1] = Cytotoxicity study using MTT assay, MG-63; format: cell-based; details: human, MG-63 osteoblast-like cells, extract, mean, read-out: Cell Viability (%) MG-63 M; for viability at 24 h, 20 µM (stock): MG-63, inhibitor concentration 20 μM; for viability at 24 h, 50 µM (stock): MG-63, inhibitor concentration 50 µM; for viability at 24 h, 100 µM (stock): MG-63, inhibitor concentration 100 µM
Method: (§1) Two cell lines, fibroblastic cells NIH/3T3 from mouse embryo (93061524) obtained from Health Protection Agency Culture Collections and supplied by Sigma and MG-63 osteoblast-like cells from human osteosarcoma (ATCC® CRL-1427^TM) were used for cytotoxicity studies. Defrosting and handling of cell lines was carried out according to supplier information.
(§2) The NIH/3T3 cells were grown in Dulbecco’s Modified Eagle Medium (DMEM, Sigma) supplemented with 10% calf bovine serum (Sigma) and 1% Penicillin-Streptomycin solution: 10,000 U/mL penicillin, 10 mg/mL streptomycin, Sigma) and 2.5 mg/L amphotericin B (fungizone, Sigma). MG-63 cells were grown in Eagle’s Minimum Essential Medium (EMEM, Sigma) supplemented with 10% fetal bovine serum and 1% of antibiotics and 2.5 mg/L antimycotics solutions.
(§3) Extracts from each compound A, B or C were prepared by spreading 20 μL of a solution with 20 μM, 50 μM or 100 μM of each compound in a glass petri dish, allowed to dry, and incubated at 37 °C under humidified 5% CO2 for 24 h with 10 mL of the corresponding growth medium according to ISO 10993–12: 2012.
(§4) The cytotoxicity assay was performed as follows: 1 × 10^4 cells per well, from passages 8 to 12, were seeded in 96-well plates (eight replicates) and incubated at 37 °C under humidified 5% CO2 for 24 h. After proliferation, the cell medium was replaced by 200 μL of each extract and incubated under the same conditions for 24 h. As positive control cells were grown in their medium containing 7.5% DMSO (Sigma) and as negative control cells proliferated in medium without any toxic corresponding to 100% cell viability. MTT assays were performed as previously described. Briefly, extracts or medium were removed, an MTT solution (0.5 mg/mL prepared in serum-free medium, Sigma) was added to each well and cells were incubated for additional 3 h. After that, a solution containing 0.1% IGEPAL (Merck), 4 mM HCl (Sigma) in isopropanol (Sigma) was used to dissolve formazan. Plates were incubated with agitation for one hour and absorbance was read at 595 nm with a microplate reader (Bio-Rad®, Hercules, California, USA).

[2] = Cytotoxicity study using MTT assay, NIH/3T3; format: cell-based, mouse; details: mouse, NIH/3T3 fibroblast cells, extract, 24 h, MTT, mean, read-out: Cell Viability (%) NIH/3T3 M; for viability at 24 h, 20 µM (stock): NIH/3T3, inhibitor concentration 20 μM; for viability at 24 h, 50 µM (stock): NIH/3T3, inhibitor concentration 50 µM; for viability at 24 h, 100 µM (stock): NIH/3T3, inhibitor concentration 100 µM
Method: as §1, §2, §3, §4

[3] = test system: NIH/3T3 fibroblast cells; assay: Cytotoxicity study using MTT assay, NIH/3T3; format: cell-based, mouse; details: NIH/3T3 cells, 50 and 100 µM
Method: as §1, §2, §3, §4

[4] = test system: MMPs; assay: Preliminary biochemical tests (not shown); details: data not shown, most MMPs
From the text: However, there were additional interactions between the compounds and the enzyme depending on the enzyme class (collagenases and gelatinases) (See Appendix B, Appendix C, Appendix D and Appendix E).

SMILES | viability at 24 h, 20 µM (stock) [1] | viability at 24 h, 50 µM (stock) [1] | viability at 24 h, 100 µM (stock) [1] | viability at 24 h, 20 µM (stock) [2] | viability at 24 h, 50 µM (stock) [2] | viability at 24 h, 100 µM (stock) [2] | toxicity according to ISO 10993–5: 2009 (viable cells decreased more than 30%) [3] | MMP activity reduction [4]
C=C(C)C(=O)Oc1ccc(-c2ccc(C#N)cc2)cc1 [Compound A, 4′-cyano-[1,1′-bihenyl]-4-yl methacrylate] | 82.6% | 73.6% | 73% | 85.1% | 54.2% | 45.5% | toxic | encouraging indications on activity reduction
C=C(C)C(=O)OCCCCCOc1ccc(-c2ccc(C#N)cc2)cc1 [Compound B, 5-((4′-cyano-[1,1′-biphenyl]-4-yl)oxy)pentyl methacrylate] | 78.1% | 70.3% | 65.9% | 78.6% | 50.5% | 40.5% | toxic | encouraging indications on activity reduction
C=C(C)C(=O)Nc1ccc(Oc2ccc(NC(=O)C(=C)C)cc2)cc1 [Compound C, N,N′-(oxybis(4,1-phenylene))bis(2-methylacrylamide)] | 85% | 65.8% | 69.2% | 83.7% | 46.4% | 42.4% | toxic | encouraging indications on activity reduction
